From paper PMC7031696 (Cell chemical biology, 2019)
pIC50: −log10 of the molar value. Like-named read-outs stand apart in the source and are kept apart here.

What was measured:
[1] = system: 3D7-MR4 trophozoite parasite-infected RBCs; conditions: 10 × IC50^72h; ref Allman et al., 2016; cited from earlier work
[2] = system: asynchronous 3D7-A10 parasite cultures; assay: Standard 72-h exposure asexual blood stage susceptibility assay (IC50^72h); assay type: cell-based, Plasmodium falciparum; conditions: Plasmodium falciparum, 3D7, 72 h, read-out: Overall (72hr assay) Mean IC50 (IC50^72h)
[3] = system: 3D7-MR4 trophozoite parasite-infected RBCs; assay: Metabolomic profiling (hydrophilic metabolite changes, UHPLC-MS); assay type: cell-based, Plasmodium falciparum
[4] = system: Plasmodium falciparum 3D7-A10 parasites; assay: Stage specificity assay (8-h exposure of synchronized stages, IC50^8h); assay type: cell-based; conditions: for pIC50: Plasmodium falciparum

CCN(CC)CCn1c(=N)n(CC(O)c2ccc(Cl)c(Cl)c2)c2ccccc21.Cl (stereo not shown) [MMV000248]
peptide levels (hemoglobin catabolism signature) [1]: decreased peptide levels | pIC50 [2]: 6.99 | Log2(fold changes) 3-phosphoglycerate ([3]; metabolite 3-phosphoglycerate, log2 fold change): 0.5325 | Log2(fold changes) 4-Pyridoxic acid ([3]; metabolite 4-Pyridoxic acid, log2 fold change): -0.4298 | Log2(fold changes) 4-aminobutyrate ([3]; metabolite 4-aminobutyrate, log2 fold change): 0.1717 | Log2(fold changes) 4-phosphopantetheine ([3]; metabolite 4-phosphopantetheine, log2 fold change): 0.0000 | Log2(fold changes) 4-phosphopantothenate ([3]; metabolite 4-phosphopantothenate, log2 fold change): -0.4691 | Log2(fold changes) 5-aminopentanoic acid ([3]; metabolite 5-aminopentanoic acid, log2 fold change): 0.0000 | Log2(fold changes) 5-methyl-THF ([3]; metabolite 5-methyl-THF, log2 fold change): 0.0000 | Log2(fold changes) 5-phosphoribosyl-1-pyrophosphate ([3]; metabolite 5-phosphoribosyl-1-pyrophosphate, log2 fold change): -1.6071 | Log2(fold changes) 6-phospho-D-gluconate ([3]; metabolite 6-phospho-D-gluconate, log2 fold change): -0.0745 | Log2(fold change) HVDD ([3]; metabolite HVDD): 0.0000 | Log2(fold change) Hydroxyisocaproic acid ([3]; metabolite Hydroxyisocaproic acid): 0.0000 | Log2(fold change) IDP ([3]; metabolite IDP): 0.0000 | Log2(fold change) IMP ([3]; metabolite IMP): -0.5306 | Log2(fold change) Inositol ([3]; metabolite Inositol): 0.0000 | Log2(fold change) Isopentyl-PP ([3]; metabolite Isopentyl-PP): 0.0000 | Log2(fold change) L-arginino-succinate ([3]; metabolite L-arginino-succinate): 0.0000 | Log2(fold change) LD ([3]; metabolite LD): -0.2580 | Log2(fold change) Myristoyl/tetradecanoyl-CoA ([3]; metabolite Myristoyl/tetradecanoyl-CoA): 0.0000 | Log2(fold change) N-Acetyl-L-alanine ([3]; metabolite N-Acetyl-L-alanine): -0.7106 | Log2(fold change) N-acetyl-L-ornithine ([3]; metabolite N-acetyl-L-ornithine): -2.2540 | Log2(fold change) N-acetyl-glucosamine-1/6-phosphate ([3]; metabolite N-acetyl-glucosamine-1/6-phosphate): 0.4803 | Log2(fold change) N-acetyl-glutamate ([3]; metabolite N-acetyl-glutamate): 0.5064 | Log2(fold change) N-acetyl-glutamine ([3]; metabolite N-acetyl-glutamine): -0.2284 | Log2(fold change) N-carbamoyl-L-aspartate ([3]; metabolite N-carbamoyl-L-aspartate): -0.8588 | Log2(fold change) NAD+ ([3]; metabolite NAD+): -0.1903 | Log2(fold change) NADH ([3]; metabolite NADH): 0.1160 | Log2(fold change) NADP+ ([3]; metabolite NADP+): -0.0428 | Log2(fold change) NADPH ([3]; metabolite NADPH): 0.7586 | Log2(fold change) O-acetyl-L-serine ([3]; metabolite O-acetyl-L-serine): 0.0000 | Log2(fold change) Octoluse 8/1P ([3]; metabolite Octoluse 8/1P): 0.0988 | Log2(fold change) Octoluse Bisphosphate ([3]; metabolite Octoluse Bisphosphate): -0.4045 | Log2(fold change) PD ([3]; metabolite PD): -2.8921 | Log2(fold change) PE ([3]; metabolite PE): -2.0895 | Log2(fold change) PEE ([3]; metabolite PEE): -1.2134 | Log2(fold change) PEEK ([3]; metabolite PEEK): -1.2498 | Log2(fold change) PVNF ([3]; metabolite PVNF): -4.7386 | Log2(fold change) Pyroglutamic acid ([3]; metabolite Pyroglutamic acid): -0.2793 | Log2(fold change) Pyrophosphate ([3]; metabolite Pyrophosphate): -1.6691 | Log2(fold change) Ribose-5-phosphate ([3]; metabolite Ribose-5-phosphate): 0.0000 | Log2(fold change) S-adenosyl-L-homocysteine ([3]; metabolite S-adenosyl-L-homocysteine): -0.0077 | Log2(fold change) S-adenosyl-L-methioninamine ([3]; metabolite S-adenosyl-L-methioninamine): 0.0000 | Log2(fold change) S-adenosyl-L-methionine ([3]; metabolite S-adenosyl-L-methionine): 0.0000 | Log2(fold change) S-methyl-5'-thioadenosine ([3]; metabolite S-methyl-5'-thioadenosine): 0.7911 | Log2(fold change) SD ([3]; metabolite SD): -1.1732 | Log2(fold change) SDL ([3]; metabolite SDL): 0.0000 | Log2(fold change) SID ([3]; metabolite SID): 0.0000 | Log2(fold change) Sedoheptulose bisphosphate ([3]; metabolite Sedoheptulose bisphosphate): -0.2688 | Log2(fold change) Thiamine pyrophosphate ([3]; metabolite Thiamine pyrophosphate): 0.0000 | Log2(fold changes) UDP-D-glucose ([3]; metabolite UDP-D-glucose, log2 fold change): -0.0583 | Log2(fold changes) UDP-D-glucuronate ([3]; metabolite UDP-D-glucuronate, log2 fold change): -0.2918 | Log2(fold changes) UDP-N-acetyl-glucosamine ([3]; metabolite UDP-N-acetyl-glucosamine, log2 fold change): -0.1616 | Log2(fold changes) UDP ([3]; metabolite UDP, log2 fold change): -0.0490 | Log2(fold changes) UMP ([3]; metabolite UMP, log2 fold change): -0.4851 | Log2(fold changes) UTP ([3]; metabolite UTP, log2 fold change): -1.1444 | Log2(fold change) hydroxyphenylpyruvate ([3]; metabolite hydroxyphenylpyruvate): 0.0000 | Log2(fold change) hydroxyproline/Aminolevulinate ([3]; metabolite hydroxyproline/Aminolevulinate): 0.0000 | Log2(fold change) hypoxanthine ([3]; metabolite hypoxanthine): -0.4020 | Log2(fold change) indole ([3]; metabolite indole): -0.6106 | Log2(fold change) inosine ([3]; metabolite inosine): -0.0831 | Log2(fold change) isoleucine ([3]; metabolite isoleucine): 0.0000 | Log2(fold change) lactate ([3]; metabolite lactate): -0.0810 | Log2(fold change) leucine ([3]; metabolite leucine): 0.0000 | Log2(fold change) lysine ([3]; metabolite lysine): 0.0000 | Log2(fold change) malate ([3]; metabolite malate): -0.9119 | Log2(fold change) maleic acid ([3]; metabolite maleic acid): 0.0000 | Log2(fold change) methionine ([3]; metabolite methionine): 0.0000 | Log2(fold change) myo-inositol ([3]; metabolite myo-inositol): 0.1446 | Log2(fold change) nicotinamide mononucleotide ([3]; metabolite nicotinamide mononucleotide): 0.0000 | Log2(fold change) nicotinate ([3]; metabolite nicotinate): 0.0498 | Log2(fold change) ornithine ([3]; metabolite ornithine): 0.1803 | Log2(fold change) orotate ([3]; metabolite orotate): -0.8832 | Log2(fold change) orotidine-5'-phosphate ([3]; metabolite orotidine-5'-phosphate): 0.0000 | Log2(fold change) oxaloacetate ([3]; metabolite oxaloacetate): 0.0000 | Log2(fold change) p-aminobenzoate ([3]; metabolite p-aminobenzoate): 0.0000 | Log2(fold change) p-hydroxybenzoate ([3]; metabolite p-hydroxybenzoate): 0.2564 | Log2(fold change) pantothenate ([3]; metabolite pantothenate): 0.0000 | Log2(fold change) phenylalanine ([3]; metabolite phenylalanine): 0.0000 | Log2(fold change) phenylpyruvate ([3]; metabolite phenylpyruvate): -0.8371 | Log2(fold change) phosphoenolpyruvate ([3]; metabolite phosphoenolpyruvate): 0.4091 | Log2(fold change) prephenate ([3]; metabolite prephenate): 0.0000 | Log2(fold change) proline ([3]; metabolite proline): 0.0000 | Log2(fold change) pyridoxine ([3]; metabolite pyridoxine): 0.0000 | Log2(fold change) pyruvate ([3]; metabolite pyruvate): -0.4292 | Log2(fold change) riboflavin ([3]; metabolite riboflavin): 0.0000 | Log2(fold change) ribose ([3]; metabolite ribose): 0.0000 | Log2(fold change) ribose-phosphate ([3]; metabolite ribose-phosphate): -0.0154 | Log2(fold change) ribulose-5-phosphate ([3]; metabolite ribulose-5-phosphate): 0.0000 | Log2(fold change) serine ([3]; metabolite serine): 0.0000 | Log2(fold change) sn-glycerol-3-phosphate ([3]; metabolite sn-glycerol-3-phosphate): 0.2907 | Log2(fold change) succinate/Methylmalonic acid ([3]; metabolite succinate/Methylmalonic acid): -0.5437 | Log2(fold change) succinyl-CoA/methylmalonyl-CoA ([3]; metabolite succinyl-CoA/methylmalonyl-CoA): 0.0000 | Log2(fold change) taurine ([3]; metabolite taurine): 0.0000 | Log2(fold change) thiamine ([3]; metabolite thiamine): 0.0000 | Log2(fold change) threonine/homoserine ([3]; metabolite threonine/homoserine): 0.0000 | Log2(fold change) thymidine ([3]; metabolite thymidine): -0.8046 | Log2(fold changes) thymine ([3]; metabolite thymine, log2 fold change): -0.3850 | Log2(fold changes) trehalose-6-Phosphate ([3]; metabolite trehalose-6-Phosphate, log2 fold change): 0.0000 | Log2(fold changes) tryptophan ([3]; metabolite tryptophan, log2 fold change): 0.0000 | Log2(fold changes) tyrosine ([3]; metabolite tyrosine, log2 fold change): 0.0000 | Log2(fold changes) uridine ([3]; metabolite uridine, log2 fold change): -0.9561 | Ratio lowest IC50 8hr/IC50 72hr ([4]; 3D7-A10): 3.7 | pIC50 ([4]; 3D7, read-out: Early trophozoites Mean IC50 (IC50^8h), 8-h exposure 16–24 hr, 3D7-A10, survival at 60 h): 6.39 | pIC50 ([4]; 3D7, read-out: Late rings Mean IC50 (IC50^8h), 8-h exposure 8–16 hr, 3D7-A10, survival at 60 h): 5.17 | pIC50 ([4]; 3D7, read-out: Late trophozoites Mean IC50 (IC50^8h), 8-h exposure 24–32 hr, 3D7-A10, survival at 60 h): 6.42 | pIC50 ([4]; 3D7, read-out: Schizonts Mean IC50 (IC50^8h), 8-h exposure 32–40 hr, 3D7-A10, survival at 60 h): 6.12 | Stage of peak activity (Figure 6) ([4]; period when the parasite was most susceptible (lowest IC50^8h)): trophozoites | Peak Activity (Table S1) ([4]; stage(s) with the lowest IC50^8h): Trophs
